This passage reports IC50 results from patent US8912188B2, “Substituted quinoxaline carboxylic acids for the inhibition of PASK” (BioEnergenix, LLC, priority 2011, dated 2014).

In the experiment the target is T1, PASK (Invitrogen) (Homo sapiens, UniProt Q96RG2).
T1 construct: IC50 Kinase Domain; purchased Invitrogen
T1 sequence (Q96RG2 999-1251 limits assumed): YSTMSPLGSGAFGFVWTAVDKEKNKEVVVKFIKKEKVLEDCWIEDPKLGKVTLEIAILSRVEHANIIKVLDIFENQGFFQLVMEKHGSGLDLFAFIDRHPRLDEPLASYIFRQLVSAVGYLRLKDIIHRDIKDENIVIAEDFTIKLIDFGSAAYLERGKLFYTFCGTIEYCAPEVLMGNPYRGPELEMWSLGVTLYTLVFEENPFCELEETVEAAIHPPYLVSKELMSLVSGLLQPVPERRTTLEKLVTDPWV
The experiment in a line: PAS Kinase FRET Assay. Particulars: PAS kinase TR-FRET assay (665 nm/615 nm), 2 hours at 25° C.; read-out: IC50 Kinase Domain. The experiment is classed as biochemical. From the text:
Biochemical Assay for hPASK Activity
The aim of the FRET assay is to determine the inhibition potential of test compounds on targeted kinase. This assay platform provides a homogenous screening method for measuring kinase activity by quantitating the amount of phospho-substrate in solution following a kinase reaction.
In the presence of kinase and ATP, the Ulight-peptide is phosphorylated and captured by an anti-phospho-substrate antibody, which brings the Eu chelate donor and Ulight acceptor dyes into close proximity.
Titration of kinase at 1 mM ATP was achieved via the following protocol. […] The contents of the plate were incubated at RT for 1 h. The reaction was stopped by adding 5 μl of stop solution to each test well followed by mixing and incubation at RT for 10 minutes. 5 μl of detection mix (detection antibody diluted in detection buffer) was added; the contents of the plate were mixed and then incubated in the dark for 1 hour at RT. […] The results were graphed to calculate the EC50.
Titration of ATP at the EC50 concentration of kinase to determine ATP Km,app. was performed using the following method. […] The contents of the plate were and incubated at RT for 1 h. The reaction was stopped by adding 5 μl of stop solution to each test well followed by mixing and incubation at RT for 10 minutes. […] (detection antibody diluted in detection buffer) was added; the contents of the plate were mixed and then incubated in the dark for 1 hour at RT. […] The results were graphed to calculate the EC50 as the ATP Km,app.
Compound screening was done via the following method. 10 mM stock solution of test compound in DMSO was prepared by dissolving test compound in DMSO at RT for 1 hour, and then sonicating at 100% output for 8 minutes. If compound is not soluble under this condition, it was diluted to 3 mM. Kinase reaction buffer was prepared containing 10 mM MgCl2, 50 mM HEPES, 1 mM EGTA, 0.01% TWEEN-20, 2 mM DTT. […] As a positive control, 2.5 μl of positive compound was added to assay wells, and 2.5 μl of DMSO to assay wells as vehicle control. Kinase solution was prepared in reaction buffer at 2× final assay concentration. Kinase solution (5 μl) was added to each well of the assay plate. The substrate and ATP solution was prepared in kinase reaction buffer at 4× final assay concentration. The kinase reaction was started by adding 2.5 μl of substrate+ATP mix solution to each well of the assay plate. The plate is mixed on a plate shaker; then covered and allowed to react for 2 hours in the dark at 25° C. without shaking. The reaction was stopped by adding 5 μl of stop solution to each test well followed by mixing and incubation at RT for 10 minutes in the dark. 5 μl of detection mix (detection antibody diluted in detection buffer) was added; the contents of the plate were mixed and then incubated in the dark for 1 hour at RT.
(In TR-FRET formats the signal depends on donor and acceptor labels being close together.)
In the case of `CN(c1nc2cc(C(=O)O)ccc2nc1-c1ccc2[nH]ncc2c1)C1CC1` [Example 29, 3-(Cyclopropyl(methyl)amino)-2-(1H-indazol-5-yl)quinoxaline-6-carboxylic acid], the IC50 (as a rule, the concentration at which inhibition is half-maximal) was less than 10 µM.
Next, `C[C@H]1CCCN1c1nc2cc(C(=O)O)ccc2nc1-c1ccc2c(c1)OC(F)(F)O2` [Example 34, (S)-2-(2,2-Difluorobenzo[d][1,3]dioxol-5-yl)-3-(2-methylpyrrolidin-1-yl)quinoxaline-6-carboxylic acid]: less than 10 µM; `CC(C)N(C)c1nc2cc(C(=O)O)ccc2nc1-c1cc2ccc(Cl)cc2o1` [Example 31, 2-(6-Chloro-1-benzofuran-2-yl)-3-[methyl(propan-2-yl)amino]quinoxaline-6-carboxylic acid]: less than 10 µM; `COC[C@H]1CCCN1c1nc2cc(C(=O)O)ccc2nc1-c1ccc2[nH]ccc2c1` [Example 67, 2-(1H-Indol-5-yl)-3-[(2R)-2-(methoxymethyl)pyrrolidin-1-yl]quinoxaline-6-carboxylic acid]: less than 10 µM.
To `O=C(O)c1ccc2nc(-c3ccc(F)cc3)c(N3CCN(C(=O)c4ccccc4)CC3)nc2c1` [Example 129, 3-(4-Benzoylpiperazin-1-yl)-2-(4-fluorophenyl)quinoxaline-6-carboxylic acid] belongs less than 10 µM.
In the case of `O=C(O)c1ccc2nc(-c3ccc4[nH]ncc4c3)c(N3CCCCC3)nc2c1` [Example 35, 2-(1H-Indazol-5-yl)-3-(piperidin-1-yl)quinoxaline-6-carboxylic acid], the IC50 is less than 10 µM.
Next, `O=C(O)c1ccc2nc(-c3cc4cc(F)ccc4o3)c(N3CCCCCC3)nc2c1` [Example 39, 3-(Azepan-1-yl)-2-(5-fluorobenzofuran-2-yl)quinoxaline-6-carboxylic acid]: less than 10 µM; `CC(C)N(C)c1nc2cc(C(=O)O)ccc2nc1-c1ccc2[nH]ncc2c1` [Example 8, 2-(1H-Indazol-5-yl)-3-(isopropyl(methyl)amino)quinoxaline-6-carboxylic acid]: less than 10 µM; `O=C(O)c1ccc2nc(-c3cc4ccccc4s3)c(N3CCCCCC3)nc2c1` [Example 54, 3-(Azepan-1-yl)-2-(benzo[b]thiophen-2-yl)quinoxaline-6-carboxylic acid]: less than 10 µM.
Next, `CN(Cc1ccccc1)c1nc2cc(C(=O)O)ccc2nc1-c1ccc2[nH]ncc2c1` [Example 97, 3-(Benzyl(methyl)amino)-2-(1H-indazol-5-yl)quinoxaline-6-carboxylic acid]: less than 10 µM.
Next, `O=C(O)c1ccc2nc(-c3ccc4[nH]ncc4c3)c(N3CCCCCC3)nc2c1` [Example 36, 3-(Azepan-1-yl)-2-(1H-indazol-5-yl)quinoxaline-6-carboxylic acid]: less than 10 µM.
For the compound `Cc1ccccc1N(C)c1nc2cc(C(=O)O)ccc2nc1-c1ccc(F)cc1` [Example 109, 2-(4-Fluorophenyl)-3-(methyl(o-tolyl)amino)quinoxaline-6-carboxylic acid], the IC50 was less than 10 µM.
Take `CC(C)N(C)c1nc2cc(C(=O)O)ccc2nc1-c1ccc2cnn(C)c2c1` [Example 5, 3-(Isopropyl(methyl)amino)-2-(1-methyl-1H-indazol-6-yl)quinoxaline-6-carboxylic acid]: the IC50 is less than 10 µM.
To `CN(c1nc2cc(C(=O)O)ccc2nc1-c1ccc(F)cc1)C1CCNCC1` [Example 103, 2-(4-Fluorophenyl)-3-(methyl(piperidin-4-yl)amino)quinoxaline-6-carboxylic acid] belongs less than 10 µM.
Next, `CCn1ncc2cc(-c3nc4ccc(C(=O)O)cc4nc3N(C)C(C)C)ccc21` [Example 26, 2-(1-Ethyl-1H-indazol-5-yl)-3-(isopropyl(methyl)amino)quinoxaline-6-carboxylic acid]: less than 10 µM; `C[C@H]1CN(c2ccccn2)CCN1c1nc2cc(C(=O)O)ccc2nc1-c1ccc2[nH]ncc2c1` [Example 92, (S)-2-(1H-indazol-5-yl)-3-(2-methyl-4-(pyridin-2-yl)piperazin-1-yl)quinoxaline-6-carboxylic acid]: less than 10 µM.
